Our source for the TGI values is PubChem BioAssay (NCI).

Test systems include 786-0 renal; A498 renal; BT-549 breast; CAKI-1 renal; COLO 205 colon; MDA-MB-231 breast; NCI/ADR-RES ovarian; OVCAR-5 ovarian; OVCAR-8 ovarian; SK-OV-3 ovarian; TK-10 renal.
Common to all, as to assay: growth of human tumour cells (NCI), 48 h

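Compound exposure: 48 hours, 5 concentrations, 96-well plates. TGI is the concentration that stops growth completely.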 A value given as a limit tells only on which side of the number the result lay.

`c1ccc(C[n+]2cccc(-c3cc4ccccc4[nH]3)c2)cc1`: the TGI in the test with 786-0 renal was greater than 100 µM; in the test with A498 renal it was greater than 100 µM; in the test with BT-549 breast, 36.6 µM; in the test with CAKI-1 renal, greater than 100 µM; with COLO 205 colon it was 28.8 µM; in the test on MDA-MB-231 breast, greater than 100 µM. The TGI in the test on NCI/ADR-RES ovarian, with OVCAR-5 ovarian, with OVCAR-8 ovarian, with SK-OV-3 ovarian and in the test with TK-10 renal was greater than 100 µM throughout.
`S=c1sc2nc(Cl)nc(Cl)c2s1`: the TGI in the test with 786-0 renal came to 12.9 µM; with A498 renal, 32 µM; with BT-549 breast it was 24 µM; with CAKI-1 renal it was 17.8 µM; with COLO 205 colon, 20.4 µM; in the test on MDA-MB-231 breast it was 24.7 µM. Besides, the TGI in the test with NCI/ADR-RES ovarian is 38.2 µM; in the test with OVCAR-5 ovarian it was 29.5 µM; in the test on OVCAR-8 ovarian, 29.8 µM; in the test on SK-OV-3 ovarian, 31.6 µM; in the test with TK-10 renal it was 26.5 µM.
For `CC(C)NCCC(O)c1cc2ccccc2o1` (stereo unspecified), the TGI in the test with 786-0 renal, with A498 renal, in the test with BT-549 breast, in the test on CAKI-1 renal, in the test with COLO 205 colon and with MDA-MB-231 breast was greater than 100 µM in each case. The TGI with NCI/ADR-RES ovarian, in the test with OVCAR-5 ovarian, in the test on OVCAR-8 ovarian, in the test with SK-OV-3 ovarian and with TK-10 renal was greater than 100 µM in each case.
`NC(=O)c1[nH]cnc1/N=N/SCC(N)C(=O)O` (stereo unspecified): the TGI in the test with 786-0 renal was greater than 100 µM; in the test with A498 renal, greater than 100 µM; with BT-549 breast it was greater than 100 µM; with CAKI-1 renal, greater than 100 µM; in the test on COLO 205 colon it was greater than 100 µM; in the test with MDA-MB-231 breast it was greater than 54.9 µM. Further, the TGI in the test on NCI/ADR-RES ovarian, with OVCAR-5 ovarian, in the test with OVCAR-8 ovarian, with SK-OV-3 ovarian and with TK-10 renal was greater than 100 µM throughout.
On to `Clc1nc2n(c1/C=C/c1cccs1)CCS2`, for which the TGI in the test on 786-0 renal is 95.5 µM; in the test with A498 renal, 57.9 µM; with BT-549 breast, 90.4 µM; in the test with CAKI-1 renal it was 55.2 µM; in the test on COLO 205 colon, greater than 100 µM; in the test with MDA-MB-231 breast, 48.8 µM. The TGI is greater than 100 µM in the test on NCI/ADR-RES ovarian; greater than 100 µM with OVCAR-5 ovarian; greater than 100 µM in the test on OVCAR-8 ovarian; 95.8 µM in the test with SK-OV-3 ovarian; greater than 100 µM in the test on TK-10 renal.
Turning to `CC(C)C1OC(/C=C/c2ccccc2)OCC1(C)C` (stereo unspecified), the TGI is greater than 100 µM in the test with 786-0 renal; 63.7 µM with A498 renal; greater than 100 µM in the test with BT-549 breast; greater than 100 µM with CAKI-1 renal; 31.2 µM in the test with COLO 205 colon; 94.7 µM with MDA-MB-231 breast. Also, the TGI in the test on NCI/ADR-RES ovarian was greater than 100 µM; in the test on OVCAR-5 ovarian, greater than 100 µM; in the test with OVCAR-8 ovarian, greater than 100 µM; in the test with SK-OV-3 ovarian, greater than 100 µM; in the test on TK-10 renal, 80.8 µM.
